According to ChEMBL document CHEMBL5344406, “1,2,3-Triazole-containing hybrids with potential antibacterial activity against ESKAPE pathogens” (2022):
≈ marks a conversion by molar mass, not a printed value.

What was measured:
Format in all cases: functional
Staphylococcus aureus [1] = assay: Antibacterial activity against Staphylococcus aureus clinical isolate 144 assessed as bacterial growth inhibition incubated for 24 hrs by CLSI based broth dilution method
Staphylococcus aureus [2] = assay: Antibacterial activity against Staphylococcus aureus clinical isolate AD3 assessed as bacterial growth inhibition incubated for 24 hrs by CLSI based broth dilution method
Staphylococcus aureus [3] = assay: Antibacterial activity against Staphylococcus aureus ATCC 43300 assessed as bacterial growth inhibition incubated for 24 hrs by CLSI based broth dilution method
Staphylococcus aureus [4] = assay: Antibacterial activity against Staphylococcus aureus ATCC 29213 assessed as bacterial growth inhibition incubated for 24 hrs by CLSI based broth dilution method
Staphylococcus aureus [5] = assay: Antibacterial activity against Staphylococcus aureus 209p ATCC 6538P assessed as bacterial growth inhibition incubated for 1 to 2 days by serial dilution method; conditions: time 1-2 day
Bacillus subtilis = assay: Antibacterial activity against Bacillus subtilis assessed as bacterial growth inhibition by broth microdilution method
Pseudomonas aeruginosa = assay: Antibacterial activity against Pseudomonas aeruginosa assessed as bacterial growth inhibition by broth microdilution method
Streptococcus pyogenes = assay: Antibacterial activity against erythromycin-resistant Streptococcus pyogenes clinical isolate 2 assessed as bacterial growth inhibition incubated for 24 hrs by CLSI based broth microdilution method
Streptococcus pneumoniae [6] = assay: Antibacterial activity against erythromycin-resistant Streptococcus pneumoniae B1 expressing ermB assessed as bacterial growth inhibition incubated for 24 hrs by CLSI based broth microdilution method
Staphylococcus aureus [7] = assay: Antibacterial activity against methicillin-resistant Staphylococcus aureus ATCC 43300 assessed as bacterial growth inhibition incubated for 24 hrs by CLSI based broth microdilution method
Staphylococcus aureus [8] = assay: Antibacterial activity against penicillin-resistant Staphylococcus aureus ATCC 31007 assessed as bacterial growth inhibition incubated for 24 hrs by CLSI based broth microdilution method
Streptococcus pneumoniae [9] = assay: Antibacterial activity against erythromycin-resistant Streptococcus pneumoniae AB11 expressing ermB/mefA assessed as bacterial growth inhibition incubated for 24 hrs by CLSI based broth microdilution method
Staphylococcus aureus [10] = assay: Antibacterial activity against Staphylococcus aureus clinical isolate 144 assessed as bacterial growth inhibition incubated for 24 hrs by broth microdilution method
Staphylococcus aureus [11] = assay: Antibacterial activity against Staphylococcus aureus ATCC 29213 assessed as bacterial growth inhibition incubated for 24 hrs by broth microdilution method
Staphylococcus aureus [12] = assay: Antibacterial activity against Staphylococcus aureus ATCC 43300 assessed as bacterial growth inhibition incubated for 24 hrs by broth microdilution method
Staphylococcus aureus [13] = assay: Antibacterial activity against Staphylococcus aureus clinical isolate AD3 assessed as bacterial growth inhibition incubated for 24 hrs by broth microdilution method
Staphylococcus aureus [14] = assay: Antibacterial activity against penicillin-resistant Staphylococcus aureus ATCC 31007 assessed as bacterial growth inhibition by standard dilution assay
Staphylococcus aureus [15] = assay: Antibacterial activity against methicillin-resistant Staphylococcus aureus ATCC 43300 assessed as bacterial growth inhibition by standard dilution assay
Staphylococcus aureus [16] = assay: Antibacterial activity against erythromycin-susceptible Staphylococcus aureus ATCC 25923 assessed as bacterial growth inhibition by standard dilution assay
Staphylococcus aureus [17] = assay: Antibacterial activity against Staphylococcus aureus assessed as bacterial growth inhibition
Escherichia coli [18] = assay: Antibacterial activity against Escherichia coli assessed as bacterial growth inhibition
Staphylococcus aureus [19] = assay: Antibacterial activity against Staphylococcus aureus assessed as bacterial growth inhibition by broth microdilution method
Escherichia coli [20] = assay: Antibacterial activity against Escherichia coli assessed as bacterial growth inhibition by broth microdilution method

In the case of `C=C[C@]1(C)C[C@@H](OC(=O)CN2CCN(C(=O)Cn3cc(CN4CCN(c5ccc(Cl)cc5)CC4)nn3)CC2)[C@@]2(C)[C@@H]3C(=O)CC[C@@]3(CC[C@@H]2C)[C@@H](C)[C@@H]1O`, the MIC (Staphylococcus aureus [1]) is reported as 1 µg/mL (≈ 1.31 µM), the MIC (Staphylococcus aureus [2]) is reported as 1 µg/mL (≈ 1.31 µM) and the MIC (Staphylococcus aureus [3]) is reported as 1 µg/mL (≈ 1.31 µM). The MIC (Staphylococcus aureus [4]) was 1 µg/mL (≈ 1.31 µM).
`COC(=O)c1cc2ccc(=O)oc2cc1-c1cn(-c2ccc(C(=O)O)cc2)nn1` showed an MIC (Staphylococcus aureus [5]) of 0.31 µg/mL (≈ 0.792 µM).
In the case of `C=CCCCCC1CC(=O)N1Cc1cn(-c2cccc([N+](=O)[O-])c2)nn1` (centres undefined), the MIC (Bacillus subtilis) is reported as 1.25 µg/mL (≈ 3.52 µM) and the MIC (Pseudomonas aeruginosa) is reported as 1.25 µg/mL (≈ 3.52 µM).
`CCCCCc1ccc(-c2cn(CCCN3CCOC(=O)[C@H](C)[C@@H](O[C@H]4C[C@@](C)(OC)[C@@H](O)[C@H](C)O4)[C@H](C)[C@@H](O[C@H]4O[C@@H](C)C[C@@H](N(C)C)[C@@H]4O)[C@](C)(OC)C[C@@H](C)[C@H](O)[C@H](C)C3)nn2)cc1` was tested, and the MIC (Streptococcus pyogenes) was 4 µg/mL (≈ 4.23 µM), the MIC (Streptococcus pneumoniae [6]) was 4 µg/mL (≈ 4.23 µM) and the MIC (Staphylococcus aureus [7]) was 4 µg/mL (≈ 4.23 µM). For the same compound, the MIC (Staphylococcus aureus [8]) was 4 µg/mL (≈ 4.23 µM) and the MIC (Streptococcus pneumoniae [9]) was 4 µg/mL (≈ 4.23 µM).
`CCCCCc1ccc(-c2cn(CC(=O)NNC(=O)O[C@H]3[C@H](C)[C@@H](O[C@H]4O[C@@H](C)C[C@@H](N(C)C)[C@@H]4O)[C@](C)(O)C[C@@H](C)CN(C)[C@H](C)C4OC(=O)O[C@@]4(C)[C@@H](CC)OC(=O)[C@@H]3C)nn2)cc1` (some centres undefined) gave an MIC (Streptococcus pyogenes) of 4 µg/mL (≈ 4.3 µM), an MIC (Streptococcus pneumoniae [6]) of 4 µg/mL (≈ 4.3 µM) and an MIC (Staphylococcus aureus [7]) of 4 µg/mL (≈ 4.3 µM). The MIC (Staphylococcus aureus [8]) was 4 µg/mL (≈ 4.3 µM) and the MIC (Streptococcus pneumoniae [9]) was 4 µg/mL (≈ 4.3 µM).
`C=C[C@]1(C)C[C@@H](OC(=O)Cn2cc(CN3CCN(c4ccccc4[N+](=O)[O-])CC3)nn2)[C@@]2(C)[C@@H]3C(=O)CC[C@@]3(CC[C@@H]2C)[C@@H](C)[C@@H]1O` was tested, and the MIC (Staphylococcus aureus [10]) was 0.5 µg/mL (≈ 0.771 µM), the MIC (Staphylococcus aureus [11]) was 0.5 µg/mL (≈ 0.771 µM) and the MIC (Staphylococcus aureus [12]) was 0.5 µg/mL (≈ 0.771 µM). For the same compound, the MIC (Staphylococcus aureus [13]) was 0.5 µg/mL (≈ 0.771 µM).
With `C=CCCCCC1CC(=O)N1Cc1cn(-c2cccc(Cl)c2)nn1` (centres undefined) the MIC (Bacillus subtilis) was 1.25 µg/mL (≈ 3.62 µM) and the MIC (Pseudomonas aeruginosa) was 1.25 µg/mL (≈ 3.62 µM).
In the case of `CC[C@H]1OC(=O)[C@H](C)[C@@H](O[C@H]2C[C@@](C)(OC)[C@@H](O)[C@H](C)O2)[C@H](C)[C@@H](O[C@@H]2O[C@H](C)C[C@H](N(C)C)[C@H]2O)[C@](C)(OC)C[C@@H](C)C(=O)[C@H](C)[C@@H](O)[C@]1(C)O` [CLARITHROMYCIN], the MIC (Staphylococcus aureus [14]) is reported as > 128 µg/mL, the MIC (Staphylococcus aureus [15]) is reported as > 128 µg/mL and the MIC (Staphylococcus aureus [16]) is reported as > 128 µg/mL.
`COc1cc2c(cc1OC)C[N+](Cc1cn(-c3ccc(C(C)(C)C)cc3)nn1)(Cc1cn(-c3ccc(C(C)(C)C)cc3)nn1)CC2.[Br-]` showed an MIC (Staphylococcus aureus [17]) of 4 µg/mL.
In the case of `C=C[C@]1(C)C[C@@H](OC(=O)CO)C2(C)[C@H](C)CCC3(CCC(=O)[C@H]32)[C@@H](C)[C@@H]1O` (some centres undefined), the MIC (Staphylococcus aureus [10]) is reported as 2 µg/mL (≈ 5.28 µM), the MIC (Staphylococcus aureus [1]) is reported as 2 µg/mL (≈ 5.28 µM) and the MIC (Staphylococcus aureus [11]) is reported as 2 µg/mL (≈ 5.28 µM). It also gave an MIC (Staphylococcus aureus [2]) of 2 µg/mL (≈ 5.28 µM), an MIC (Staphylococcus aureus [12]) of 2 µg/mL (≈ 5.28 µM) and an MIC (Staphylococcus aureus [13]) of 2 µg/mL (≈ 5.28 µM). For the same compound, the MIC (Staphylococcus aureus [3]) was 2 µg/mL (≈ 5.28 µM) and the MIC (Staphylococcus aureus [4]) was 2 µg/mL (≈ 5.28 µM).
`C=C[C@]1(C)C[C@@H](OC(=O)Cn2cc(CN3CCN(c4ccc([N+](=O)[O-])cc4)CC3)nn2)[C@@]2(C)[C@@H]3C(=O)CC[C@@]3(CC[C@@H]2C)[C@@H](C)[C@@H]1O` was tested, and the MIC (Staphylococcus aureus [10]) was 0.5 µg/mL (≈ 0.771 µM), the MIC (Staphylococcus aureus [11]) was 0.5 µg/mL (≈ 0.771 µM) and the MIC (Staphylococcus aureus [12]) was 0.5 µg/mL (≈ 0.771 µM). The MIC (Staphylococcus aureus [13]) was 0.5 µg/mL (≈ 0.771 µM).
Work on `CO/N=C(\C(=O)N[C@@H]1C(=O)N2C(C(=O)O)=C(CSc3nc(=O)c(O)nn3C)CS[C@H]12)c1csc(N)n1` [CEFTRIAXONE] yielded an MIC (Staphylococcus aureus [5]) of 0.97 µg/mL (≈ 1.75 µM).
Compound `Cn1c([N+](=O)[O-])cnc1COCc1cn(-c2ccnc3cc(Cl)ccc23)nn1` has an MIC (Staphylococcus aureus [17]) of 1 µg/mL (≈ 2.5 µM) and an MIC (Escherichia coli [18]) of 1 µg/mL (≈ 2.5 µM).
Compound `CC(=O)Nc1ccc(S(=O)(=O)n2cc(CN3CCS(=O)(=O)CC3)nn2)cc1` has an MIC (Bacillus subtilis) of 1.56 µg/mL (≈ 3.77 µM), an MIC (Pseudomonas aeruginosa) of 1.56 µg/mL (≈ 3.77 µM) and an MIC (Staphylococcus aureus [19]) of 1.56 µg/mL (≈ 3.77 µM). The MIC (Escherichia coli [20]) was 1.56 µg/mL (≈ 3.77 µM).
In the case of `CC[C@H]1OC(=O)[C@H](C)[C@@H](O[C@H]2C[C@@](C)(OC)[C@@H](O)[C@H](C)O2)[C@H](C)[C@@H](O[C@@H]2O[C@H](C)C[C@H](N(C)C)[C@H]2O)[C@](C)(O)C[C@@H](C)CN(C)[C@H](C)[C@@H](O)[C@]1(C)O` [AZITHROMYCIN], the MIC (Streptococcus pyogenes) is reported as > 256 µg/mL, the MIC (Streptococcus pneumoniae [6]) is reported as > 256 µg/mL and the MIC (Staphylococcus aureus [7]) is reported as > 256 µg/mL. For the same compound, the MIC (Staphylococcus aureus [8]) was > 256 µg/mL, the MIC (Staphylococcus aureus [14]) was > 128 µg/mL and the MIC (Staphylococcus aureus [15]) was > 128 µg/mL. The MIC (Streptococcus pneumoniae [9]) was > 256 µg/mL and the MIC (Staphylococcus aureus [16]) was > 128 µg/mL.
